Test results taken from paper PMC8701318, “LC-QTOF-MS/MS Based Molecular Networking Approach for the Isolation of α-Glucosidase Inhibitors and Virucidal Agents from Coccinia grandis (L.) Voigt” (Foods, 2021).

Columns and labels:
[1] = mice model; cited from earlier work
[2] = test system: hippocampal neural progenitor cells; set-up: method as in PMID 19326568; settings: possibly via the 5-HT1A receptor; cited from earlier work
influenza A virus H1N1 = assay: Virucidal activity, ASTM E1053-20 method; assay type: cell-based; settings: for Virucidal Activity Log Reduction: 10 min exposure
[3] = target: α-Glucosidase enzyme (Saccharomyces cerevisiae); assay: In-vitro α-glucosidase inhibitory assay (p-NPG substrate); settings: read-out: α-Glucosidase Inhibitory Activity, IC50; mean ± s.d. of a triplicate experiment
Protocol: The α-glucosidase assay was performed as described by Liu et al. [21] with slight modification. The reaction mixture consisting of 50 µL of potassium phosphate buffer (PBS, 0.1 M, pH 6.8) and 20 µL of α-glucosidase (0.5 U/mL) was pre-incubated with 20 µL of the test sample at 37 °C for 15 min in a 96-well plate. The mixture was added 20 µL p-NPG (1 mM) and incubated again at 37 °C for 15 min. A total of 50 µL of Na2CO3 (0.2 M) was added to terminate the enzymatic activity. The absorbance value of each well was measured immediately using a microplate reader at 405 nm. […] All glycosides were dissolved in 50% DMSO, while a crude extract was dissolved in 100% DMSO. The experiment was performed in triplicate. The enzyme inhibition rate was calculated as follows:(1) [1−(ODsample−ODsample blank)/(ODcontrol−ODblank)] × 100 where ODsample represents the absorbance of PBS + enzyme + sample + p-NPG; ODsample blank represents the absorbance of PBS + sample; ODcontrol represents the absorbance of PBS + enzyme + solvent + p-NPG; ODblank represents the absorbance of PBS + solvent. The inhibitory activity is expressed as IC50 (half minimal inhibitory concentration) value. Data were normalized, and the IC50 values were calculated using GraphPad Prism 9.2.0.

[4] = Cytotoxicity in MDCK cells by the MTT assay; settings: dog
[5] = set-up: method as in earlier work; settings: isolated from cottonseeds; cited from earlier work
hepatitis C virus = test system: hepatitis C virus; set-up: method as in PMID 28638096; settings: cited from earlier work
α-glucosidase = test system: α-glucosidase; set-up: method as in PMID 24125526; settings: isolated from leaves of Morus atropurpurea; cited from earlier work
[6] = test system: dengue virus serine protease; set-up: method as in PMID 32107969; settings: cited from earlier work

Row | Compound | Virucidal Activity Log Reduction (influenza A virus H1N1; 15.6 µg/mL) | Virucidal Activity Log Reduction (influenza A virus H1N1; 31.3 µg/mL) | Virucidal Activity Log Reduction (influenza A virus H1N1; 62.5 µg/mL) | Virucidal Activity Log Reduction (influenza A virus H1N1; 125.0 µg/mL) | Virucidal Activity Log Reduction (influenza A virus H1N1; 250.0 µg/mL) | Virucidal Activity Log Reduction (influenza A virus H1N1; 500.0 µg/mL) | reduction of virus (influenza A virus H1N1; 500.0 and 250.0 µg/mL) | virucidal Log reduction (influenza A virus H1N1; 500.0 and 250.0 µg/mL) | IC50 [3] | viability at 15.6 µg/mL [4] | viability at 31.3 µg/mL [4] | viability at 62.5 µg/mL [4] | viability at 125 µg/mL [4] | viability at 250 µg/mL [4] | viability at 500 µg/mL [4] | Virucidal Activity Log Reduction (influenza A virus H1N1; 3.9 µg/mL) | Virucidal Activity Log Reduction (influenza A virus H1N1; 7.8 µg/mL) | viability at 3.9 µg/mL [4] | viability at 7.8 µg/mL [4] | α-glucosidase inhibitory activity (in words) (α-glucosidase) | also measured
1 | C[C@@H]1O[C@@H](OC[C@H]2O[C@@H](Oc3c(-c4ccc(O)c(O)c4)oc4cc(O)cc(O)c4c3=O)[C@H](O[C@@H]3OCC(O)(CO)[C@H]3O)[C@@H](O)[C@@H]2O)[C@H](O)[C@H](O)[C@H]1O (stereo partly drawn) [Compound 5, quercetin 3-O-β-D-apiofuranosyl-(1→2)-[α-L-rhamnopyranosyl-(1→6)]-β-D-glucopyranoside] | 1.87 ± 0.072 Log | 1.84 ± 0.108 Log | 1.90 ± 0.062 Log | 1.97 ± 0.088 Log | 2.01 ± 0.239 Log | 2.11 ± 0.198 Log | 99% | 1.93–2.41 Log | 431 ± 17.6 µM | 95.8 ± 4.22% | 94.1 ± 1.85% | 90 ± 3.08% | 85.8 ± 2.87% | 83.7 ± 1.2% | 82.9 ± 2.06% | – | – | – | – | – | absorption and tissue distribution (in words) [1]: could be absorbed and distributed into tissues; proliferation of hippocampal neural progenitor cells (in words) [2]: could enhance the proliferation; antidepressant and cytoprotective effects (in words) [5]: antidepressant and cytoprotective effects
2 | C[C@@H]1O[C@@H](OC[C@H]2O[C@@H](Oc3c(-c4ccc(O)cc4)oc4cc(O)cc(O)c4c3=O)[C@H](O[C@@H]3OCC(O)(CO)[C@H]3O)[C@@H](O)[C@@H]2O)[C@H](O)[C@H](O)[C@H]1O (stereo partly drawn) [Compound 6, kaempferol 3-O-β-D-apiofuranosyl-(1→2)-[α-L-rhamnopyranosyl-(1→6)]-β-D-glucopyranoside] | 1.93 ± 0.124 Log | 1.93 ± 0.124 Log | 1.93 ± 0.124 Log | 1.93 ± 0.124 Log | 1.93 ± 0.124 Log | 1.97 ± 0.042 Log | 99% | 1.93–2.41 Log | 456 ± 26 µM | 97 ± 2.99% | 95.7 ± 1.63% | 93.7 ± 4.87% | 89.5 ± 0.83% | 88.6 ± 0.43% | 86.4 ± 2.06% | – | – | – | – | – | –
3 | C[C@@H]1O[C@@H](OC[C@H]2O[C@@H](Oc3c(-c4ccc(O)c(O)c4)oc4cc(O)cc(O)c4c3=O)[C@H](O)[C@@H](O)[C@@H]2O)[C@H](O)[C@H](O)[C@H]1O [Compound 1, rutin] | 1.34 ± 0.044 Log | 1.34 ± 0.030 Log | 1.52 ± 0.045 Log | 1.80 ± 0.105 Log | – | – | – | – | 243 ± 5.29 µM | 94.7 ± 3.93% | 86.5 ± 2.16% | 83.8 ± 2.02% | 77.2 ± 1.28% | – | – | 1.20 ± 0.025 Log | 1.32 ± 0.032 Log | 99.3 ± 3.45% | 97.8 ± 0.31% | α-glucosidase inhibitory activity | hepatitis C virus entry inhibition (in words) (hepatitis C virus): potent hepatitis C virus entry inhibitor
4 | C[C@@H]1O[C@@H](OC[C@H]2O[C@@H](Oc3c(-c4ccc(O)cc4)oc4cc(O)cc(O)c4c3=O)[C@H](O)[C@@H](O)[C@H]2O)[C@H](O)[C@H](O)[C@H]1O [Compound 3, kaempferol 3-O-alpha-L-rhamnopyranosyl-(1→6)-beta-D-galactopyranoside] | 1.91 ± 0.062 Log | 1.95 ± 0.124 Log | 1.91 ± 0.062 Log | 1.98 ± 0.088 Log | – | – | – | – | 195 ± 18.1 µM | 89.7 ± 0.82% | 88.7 ± 0.21% | 83.6 ± 0.74% | 73.3 ± 0.9% | – | – | 1.63 ± 0.069 Log | 1.66 ± 0.071 Log | 95.6 ± 6.25% | 92.8 ± 4.84% | – | reduction of virus (influenza A virus H1N1; 31.3 and 15.6 µg/mL): 99%; virucidal Log reduction (influenza A virus H1N1; 31.3 and 15.6 µg/mL): around 1.9 Log
5 | C[C@@H]1O[C@@H](OC[C@H]2O[C@@H](Oc3c(-c4ccc(O)cc4)oc4cc(O)cc(O)c4c3=O)[C@H](O)[C@@H](O)[C@@H]2O)[C@H](O)[C@H](O)[C@H]1O [Compound 2, kaempferol 3-O-rutinoside] | 1.66 ± 0.071 Log | 1.68 ± 0.046 Log | 1.82 ± 0.091 Log | 1.95 ± 0.124 Log | – | – | – | – | 236 ± 27.7 µM | 92.3 ± 1.95% | 88.5 ± 2.67% | 86.5 ± 3.82% | 78 ± 1.75% | – | – | 1.66 ± 0.071 Log | 1.65 ± 0.084 Log | 98.1 ± 1.34% | 96.3 ± 5.13% | α-glucosidase inhibitory activity | inhibition of dengue virus serine protease (in words) [6]: strong inhibition
6 | C[C@@H]1O[C@@H](OC[C@H]2O[C@@H](Oc3c(-c4ccc(O)cc4)oc4cc(O)cc(O)c4c3=O)[C@H](O[C@@H]3OCC(O)(CO)[C@H]3O)[C@@H](O)[C@H]2O)[C@H](O)[C@H](O)[C@H]1O (stereo partly drawn) [Compound 7, kaempferol 3-O-β-D-apiofuranosyl-(1→2)-[α-L-rhamnopyranosyl-(1→6)]-β-D-galactopyranoside] | – | – | – | – | – | – | – | – | 432 ± 18.9 µM | – | – | – | – | – | – | – | – | – | – | – | –
